Data from patent US8946215B2, “Hydroxy-substituted imidazo[1,2-a]pyridinecarboxamides and their use” (Bayer Pharma Aktiengesellschaft, priority 2012, dated 2015).

Tests used:
[1] = target: T1, recombinant guanylate cyclase reporter cell line (Rattus norvegicus, UniProt P19686+P20595); assay: Action on recombinant guanylate cyclase reporter cell line; type: cell-based; conditions: in some cases mean values obtained from individual determinations
T1 construct: expressed in transfected cells
T1 sequence (P20595 1-619): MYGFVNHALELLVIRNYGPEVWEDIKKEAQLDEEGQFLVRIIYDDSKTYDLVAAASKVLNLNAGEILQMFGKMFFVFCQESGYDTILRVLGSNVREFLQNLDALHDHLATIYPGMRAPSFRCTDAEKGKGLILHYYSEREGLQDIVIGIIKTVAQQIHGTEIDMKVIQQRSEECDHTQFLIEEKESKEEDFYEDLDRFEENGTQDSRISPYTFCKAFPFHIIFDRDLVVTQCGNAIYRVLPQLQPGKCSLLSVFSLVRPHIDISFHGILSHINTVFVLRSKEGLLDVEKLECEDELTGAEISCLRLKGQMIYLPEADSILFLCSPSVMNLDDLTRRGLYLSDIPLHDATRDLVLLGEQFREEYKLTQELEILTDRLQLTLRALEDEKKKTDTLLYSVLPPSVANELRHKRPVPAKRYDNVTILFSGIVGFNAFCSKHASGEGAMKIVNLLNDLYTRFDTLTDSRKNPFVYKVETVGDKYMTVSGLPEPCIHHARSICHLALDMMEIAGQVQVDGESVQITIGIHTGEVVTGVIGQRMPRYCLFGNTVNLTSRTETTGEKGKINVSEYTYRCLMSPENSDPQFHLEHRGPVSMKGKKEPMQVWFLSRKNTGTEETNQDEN
T1 sequence (P19686 1-690): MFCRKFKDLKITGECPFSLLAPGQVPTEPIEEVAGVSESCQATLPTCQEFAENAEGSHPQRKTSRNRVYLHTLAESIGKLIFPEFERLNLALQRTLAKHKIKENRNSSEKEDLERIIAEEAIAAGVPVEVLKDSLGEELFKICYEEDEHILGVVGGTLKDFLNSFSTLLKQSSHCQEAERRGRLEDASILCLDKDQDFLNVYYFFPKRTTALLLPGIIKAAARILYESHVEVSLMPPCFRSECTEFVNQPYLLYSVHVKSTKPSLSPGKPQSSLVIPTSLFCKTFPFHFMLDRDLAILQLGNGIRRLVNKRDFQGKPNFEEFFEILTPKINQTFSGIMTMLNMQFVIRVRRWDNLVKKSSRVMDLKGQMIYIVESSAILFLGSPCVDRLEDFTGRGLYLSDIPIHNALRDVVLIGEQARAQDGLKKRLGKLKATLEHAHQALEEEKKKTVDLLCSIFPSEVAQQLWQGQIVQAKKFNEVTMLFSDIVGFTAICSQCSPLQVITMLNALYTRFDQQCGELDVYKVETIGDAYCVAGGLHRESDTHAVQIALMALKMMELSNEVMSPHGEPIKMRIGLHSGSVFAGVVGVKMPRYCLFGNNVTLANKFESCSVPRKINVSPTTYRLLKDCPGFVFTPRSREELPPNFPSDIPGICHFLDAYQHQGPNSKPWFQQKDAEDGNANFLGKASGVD
How it was run: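 Cell-based reporter assay with recombinant guanylate cyclase expressed in a reporter cell line, per a published method. Activity reported as minimal effective concentration (MEC), in some cases as the mean of individual determinations.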

[2] = Determination of pharmacokinetic parameters following intravenous and oral administration (rats); type: in vivo, male Wistar rats; conditions: following intravenous and peroral administration; for MRT / half-life: male, Wistar, rat, plasma; for MRT: read-out: MRT (Mean Residence Time); for half-life: read-out: t½ (terminal half life) (converted)
Procedure: B-6. Determination of Pharmacokinetic Parameters Following Intravenous and Oral Administration
The pharmacokinetic parameters of the compounds according to the invention are determined in male CD-1 mice, male Wistar rats and female beagles. Intravenous administration in the case of mice and rats is carried out by means of a species-specific plasma/DMSO formulation, and in the case of dogs by means of a water/PEG400/ethanol formulation. In all species, oral administration of the dissolved substance is performed via gavage, based on a water/PEG400/ethanol formulation.
The taking of blood from rats is simplified by inserting a silicone catheter into the right Vena jugularis externa prior to substance administration. The operation is carried out at least one day prior to the experiment with […] and administration of an analgesic (atropin/Rimadyl (3/1) 0.1 ml s.c.). The blood is taken (generally more than 10 time points) within a time window including terminal time points of at least 24 to a maximum of 72 hours after substance administration. When the blood is taken, it is passed into heparinised tubes. Then the blood plasma is obtained by centrifugation and is optionally stored at −20° C. until further processing.
An internal standard (which may also be a chemically unrelated substance) is added to the samples of the compounds according to the invention, calibration samples and qualifiers, and there follows protein precipitation by means of excess acetonitrile. Addition of a buffer solution matched to the LC conditions, and subsequent vortexing, is followed by centrifugation at 1000 g. The supernatant is analysed by LC-MS/MS using C18 reversed-phase columns and variable mobile phase mixtures.
The substances are quantified via the peak heights or areas from extracted ion chromatograms of specific selected ion monitoring experiments.
The plasma concentration/time plots determined are used to calculate the pharmacokinetic parameters such as AUC, Cmax, t1/2 (terminal half life), F (Bioavailability), MRT (Mean Residence Time) and CL (Clearance), using a validated pharmacokinetic calculation programme.
Since the substance quantification is carried out in plasma, it is necessary to determine the blood/plasma distribution of the substance in order to be able to adjust the pharmacokinetic parameters correspondingly. For this purpose, a defined amount of substance is incubated in heparinised whole blood of the species in question in a rocking roller mixer for 20 min. After centrifugation at 1000 g, the plasma concentration is measured (by means of LC-MS/MS; see above) and determined by calculating the ratio of the Cblood/Cplasma value.

Row | MEC (minimal effective concentration) [1] | SMILES | further results
1 | 0.3 µM | Cc1nc2c(OCc3ncccc3F)cc(Cl)cn2c1C(=O)NC(CCCC(F)(F)F)C(C)(C)O (single isomer, unassigned; ent-6) [Example 188, ent-6-chloro-8-[(3-fluoropyridin-2-yl)methoxy]-2-methyl-N-(7,7,7-trifluoro-2-hydroxy-2-methylheptan-3-yl)imidazo[1,2-a]pyridine-3-carboxamide (enantiomer A)] | AUCnorm [2]: 2.3 kg·h/L; CLblood [2]: 8.83 mL/min/kg; MRT [2]: 2.5 h; half-life [2]: 1.7 h
2 | 0.53 µM | Cc1nc2c(OCc3ncccc3F)cc(Cl)cn2c1C(=O)NC(CCC(F)(F)C(F)(F)F)C(C)(C)O (single isomer, unassigned; ent-6) [Example 194, ent-6-chloro-8-[(3-fluoropyridin-2-yl)methoxy]-2-methyl-N-(6,6,7,7,7-pentafluoro-2-hydroxy-2-methylheptan-3-yl)imidazo[1,2-a]pyridine-3-carboxamide (enantiomer A)] | AUCnorm [2]: 2.9 kg·h/L; CLblood [2]: 7.33 mL/min/kg; MRT [2]: 8.4 h; half-life [2]: 6.2 h
3 | 0.03 µM | CCCC[C@@H](NC(=O)c1c(C)nc2c(OCc3c(F)cccc3F)cccn12)C(C)O (stereo partly drawn) [Example 139, 8-[(2,6-Difluorobenzyl)oxy]-N-[(3R)-2-hydroxyheptan-3-yl]-2-methylimidazo[1,2-a]pyridine-3-carboxamide] | 
4 | 0.03 µM | CCCC[C@@H](NC(=O)c1c(C)nc2c(OCc3c(F)cccc3F)cccn12)C(C)O (stereo partly drawn) [Example 140, 8-[(2,6-Difluorobenzyl)oxy]-N-[(3R)-2-hydroxyheptan-3-yl]-2-methylimidazo[1,2-a]pyridine-3-carboxamide] | 
5 | 0.1 µM | CCCC[C@@H](NC(=O)c1c(C)nc2c(OCc3c(F)cccc3F)cccn12)C(O)C(F)(F)F (stereo partly drawn) [Example 141, 8-[(2,6-Difluorobenzyl)oxy]-2-methyl-N-[(3R)-1,1,1-trifluoro-2-hydroxyheptan-3-yl]imidazo[1,2-a]pyridine-3-carboxamide] | 
6 | 0.1 µM | CCCC[C@@H](NC(=O)c1c(C)nc2c(OCc3c(F)cccc3F)cccn12)C(O)C(F)(F)F (stereo partly drawn) [Example 142, 8-[(2,6-Difluorobenzyl)oxy]-2-methyl-N-[(3R)-1,1,1-trifluoro-2-hydroxyheptan-3-yl]imidazo[1,2-a]pyridine-3-carboxamide] | 
7 | 0.1 µM | CCCC[C@@H](NC(=O)c1c(C)nc2c(OCc3c(F)cccc3F)cccn12)C(C)(C)O [Example 147, 8-[(2,6-Difluorobenzyl)oxy]-N-[(3R)-2-hydroxy-2-methylheptan-3-yl]-2-methylimidazo[1,2-a]-pyridine-3-carboxamide] | 
8 | 0.3 µM | Cc1nc2c(OCc3c(F)cccc3F)cccn2c1C(=O)NCCC(C)(C)O [Example 153, 8-[(2,6-difluorobenzyl)oxy]-N-(3-hydroxy-3-methylbutyl)-2-methylimidazo[1,2-a]pyridine-3-carboxamide] | 
9 | 0.065 µM | CCCC[C@H](CO)NC(=O)c1c(C)nc2c(OCc3c(F)cccc3F)cc(C#N)cn12 [Example 157, 6-Cyano-8-[(2,6-difluorobenzyl)oxy]-N-[(2R)-1-hydroxyhexan-2-yl]-2-methylimidazo[1,2-a]-pyridine-3-carboxamide] | 
10 | 0.2 µM | COC(=O)[C@H](CO)NC(=O)c1c(C)nc2c(OCc3c(F)cccc3F)cccn12 [Example 164, Methyl N-({8-[(2,6-difluorobenzyl)oxy]-2-methylimidazo[1,2-a]pyridin-3-yl}carbonyl)-L-serinate] | 
11 | 1.0 µM | Cc1nc2c(OCc3c(F)cccc3F)cccn2c1C(=O)N[C@@H](CO)C(C)(C)O [Example 165, 8-[(2,6-Difluorobenzyl)oxy]-N-[(2S)-3-dihydroxy-3-methylbutan-2-yl]-2-methylimidazo[1,2-a]-pyridine-3-carboxamide] | 
12 | 1.0 µM | CCCC[C@H](CO)NC(=O)c1c(C)nc2c(OCc3c(F)cccc3F)c(F)ccn12 [Example 177, 8-[(2,6-Difluorobenzyl)oxy]-7-fluoro-N-[(2R)-1-hydroxyhexan-2-yl]-2-methylimidazo[1,2-a]-pyridine-3-carboxamide] | 

Row | SMILES | MEC (minimal effective concentration) [1] | further results
13 | CCCC[C@H](CO)NC(=O)c1c(C)nc2c(OCCC(C)C)cccn12 [Example 159, N-[(2R)-1-Hydroxyhexan-2-yl]-2-methyl-8-(3-methylbutoxy)imidazo[1,2-a]pyridine-3-carboxamide] | 1.0 µM | 
14 | CCCC[C@H](CO)NC(=O)c1c(C)nc2c(OCCC(C)C)cc(C)cn12 [Example 166, N-[(2R)-1-Hydroxyhexan-2-yl]-2,6-dimethyl-8-(3-methylbutoxy)imidazo[1,2-a]pyridine-3-carboxamide] | 1.0 µM | 
15 | CCCC[C@H](CO)NC(=O)c1c(C)nc2c(OCCC(C(F)(F)F)C(F)(F)F)cc(C)cn12 [Example 169, N-[(2R)-1-Hydroxyhexan-2-yl]-2,6-dimethyl-8-[4,4,4-trifluoro-3-(trifluoromethyl)butoxy]imidazo-[1,2-a]pyridine-3-carboxamide] | 0.3 µM | 
16 | Cc1cc(OCCC(C(F)(F)F)C(F)(F)F)c2nc(C)c(C(=O)NC3c4ccccc4CC3O)n2c1 (stereo not shown) [Example 172, N-(2-Hydroxy-2,3-dihydro-1H-inden-1-yl)-2,6-dimethyl-8-[4,4,4-trifluoro-3-(trifluoromethyl)-butoxy]imidazo[1,2-a]pyridine-3-carboxamide] | 1.0 µM | 
17 | Cc1cc(OCCC(C(F)(F)F)C(F)(F)F)c2nc(C)c(C(=O)NC3CCCC3O)n2c1 (stereo not shown) [Example 173, N-(2-hydroxycyclopentyl)-2,6-dimethyl-8-[4,4,4-trifluoro-3-(trifluoromethyl)butoxy]imidazo[1,2-a]pyridine-3-carboxamide] | 3.0 µM | 
